Assay results: patent US9518018B2, “3-alkoxy, thioalkyl and amino-4-amino-6-(substituted)picolinates and their use as herbicides” (Dow AgroSciences LLC, priority 2011, dated 2016)

Legend:
[1] = system: ABUTH: velvetleaf (Abutilon theophrasti); assay: Post-Emergent Test I herbicidal activity; type: in vivo; settings: Abutilon theophrasti, post-emergence, 336 h, read-out: Visual Growth Reduction (%)-14 Days after Application ABUTH; for pest or weed control at 280 g/ha: Table 3, 280 g ai/ha; for pest or weed control at 70 g/ha: Table 3, 70 g ai/ha; for pest or weed control at 140 g/ha: Table 3, 140 g ai/ha
Outline: (§1)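 Seedlings are kept at 23–29 °C day / 22–28 °C night with ~15 h light and subirrigated after spraying to avoid wash-off. Compound in a crop-oil concentrate and Triton X-155 carrier is applied at 187 L/ha; 14-d visual injury feeds probit-derived growth-reduction doses (GR20/50/80).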

[2] = system: CHEAL: lambsquarters (Chenopodium album); assay: Post-Emergent Test I herbicidal activity; type: in vivo; settings: Chenopodium album, post-emergence, 336 h, read-out: Visual Growth Reduction (%)-14 Days after Application CHEAL; for pest or weed control at 280 g/ha: Table 3, 280 g ai/ha; for pest or weed control at 70 g/ha: Table 3, 70 g ai/ha; for pest or weed control at 140 g/ha: Table 3, 140 g ai/ha
Outline: as §1

[3] = system: CYPES: yellow nutsedge (Cyperus esculentus); assay: Post-Emergent Test I herbicidal activity; type: in vivo; settings: post-emergence, 336 h, read-out: Visual Growth Reduction (%)-14 Days after Application CYPES; for pest or weed control at 280 g/ha: Table 3, 280 g ai/ha; for pest or weed control at 70 g/ha: Table 3, 70 g ai/ha; for pest or weed control at 140 g/ha: Table 3, 140 g ai/ha
Outline: as §1

[4] = system: ECHCG: barnyardgrass (Echinochloa crus-galli); assay: Post-Emergent Test I herbicidal activity; type: in vivo; settings: post-emergence, 336 h, read-out: Visual Growth Reduction (%)-14 Days after Application ECHCG; for pest or weed control at 280 g/ha: Table 3, 280 g ai/ha; for pest or weed control at 70 g/ha: Table 3, 70 g ai/ha; for pest or weed control at 140 g/ha: Table 3, 140 g ai/ha
Outline: (§2)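 Greenhouse-grown seedlings (peat-based mix, pH 6.0–6.8; ~15 h photoperiod, 23–29 °C day) were sprayed post-emergence at first/second true-leaf stage with compound in acetone/DMSO/aqueous crop-oil–surfactant carrier at 187 L/ha, using a twofold rate series. Injury was scored visually after 14 d (0–100%); GR20/GR50/GR80 derived by probit analysis.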

[5] = system: EPHHL: wild poinsettia (Euphorbia heterophylla); assay: Post-Emergent Test I herbicidal activity; type: in vivo; settings: post-emergence, 336 h, read-out: Visual Growth Reduction (%)-14 Days after Application EPHHL; for pest or weed control at 280 g/ha: Table 3, 280 g ai/ha; for pest or weed control at 70 g/ha: Table 3, 70 g ai/ha; for pest or weed control at 140 g/ha: Table 3, 140 g ai/ha
Outline: as §1

[6] = system: ORYSA: rice (Oryza sativa); assay: Post-Emergent Test I herbicidal activity; type: in vivo; settings: post-emergence, 336 h, read-out: Visual Growth Reduction (%)-14 Days after Application ORYSA; for pest or weed control at 280 g/ha: Table 3, 280 g ai/ha; for pest or weed control at 70 g/ha: Table 3, 70 g ai/ha; for pest or weed control at 140 g/ha: Table 3, 140 g ai/ha
Outline: as §2

ZEAMX: corn (Zea mays) = assay: Post-Emergent Test I herbicidal activity; type: in vivo; settings: Zea mays, post-emergence, 336 h, read-out: Visual Growth Reduction (%)-14 Days after Application ZEAMX; for pest or weed control at 280 g/ha: Table 3, 280 g ai/ha; for pest or weed control at 70 g/ha: Table 3, 70 g ai/ha; for pest or weed control at 140 g/ha: Table 3, 140 g ai/ha
Outline: as §1

Row | Compound | melting point | pest or weed control at 140 g/ha [1] | pest or weed control at 140 g/ha [2] | pest or weed control at 140 g/ha [3] | pest or weed control at 140 g/ha [4] | pest or weed control at 140 g/ha [5] | pest or weed control at 140 g/ha [6] | pest or weed control at 140 g/ha (ZEAMX: corn (Zea mays)) | also measured
1 | COC(=O)c1nc(Cl)c(Cl)c(N)c1OC [Compound 2, methyl 4-amino-5,6-dichloro-3-methoxypicolinate] | 119 to 121 °C | – | – | – | – | – | – | – | pest or weed control at 280 g/ha [1]: 90%; pest or weed control at 280 g/ha [2]: 90%; pest or weed control at 280 g/ha [3]: 0%; pest or weed control at 280 g/ha [4]: 0%; pest or weed control at 280 g/ha [5]: 95%; pest or weed control at 280 g/ha [6]: 0%; pest or weed control at 280 g/ha (ZEAMX: corn (Zea mays)): 0%
2 | COC(=O)c1nc(-c2ccc(Cl)c(OC)c2F)cc(N)c1OC [Compound 5, methyl 4-amino-6-(4-chloro-2-fluoro-3-methoxyphenyl)-3-methoxypicolinate] | 114 to 118 °C | – | – | – | – | – | – | – | pest or weed control at 70 g/ha [1]: 100%; pest or weed control at 70 g/ha [2]: 100%; pest or weed control at 70 g/ha [3]: 20%; pest or weed control at 70 g/ha [4]: 80%; pest or weed control at 70 g/ha [5]: 100%; pest or weed control at 70 g/ha [6]: 0%; pest or weed control at 70 g/ha (ZEAMX: corn (Zea mays)): 60%
3 | CCc1nc(C(=O)OC)c(OC)c(N)c1F [Compound 13, methyl 4-amino-6-ethyl-5-fluoro-3-methoxypicolinate] | 110.5 to 113 °C | – | – | – | – | – | – | – | pest or weed control at 280 g/ha [1]: 0%; pest or weed control at 280 g/ha [2]: 90%; pest or weed control at 280 g/ha [3]: 0%; pest or weed control at 280 g/ha [4]: 0%; pest or weed control at 280 g/ha [5]: 70%; pest or weed control at 280 g/ha [6]: 0%; pest or weed control at 280 g/ha (ZEAMX: corn (Zea mays)): 0%
4 | COC(=O)c1nc(-c2cc(F)c(Br)cc2F)c(F)c(N)c1OC [Compound 20] | 116 to 118 °C | – | – | – | – | – | – | – | pest or weed control at 70 g/ha [1]: 85%; pest or weed control at 70 g/ha [2]: 100%; pest or weed control at 70 g/ha [3]: 50%; pest or weed control at 70 g/ha [4]: 80%; pest or weed control at 70 g/ha [5]: 100%; pest or weed control at 70 g/ha [6]: 0%; pest or weed control at 70 g/ha (ZEAMX: corn (Zea mays)): 80%
5 | COC(=O)c1nc(-c2cc(F)c(I)cc2F)c(F)c(N)c1OC [Compound 25] | 127 to 129 °C | 70% | 90% | 100% | 85% | 100% | 0% | 70% | –
6 | COc1c(C(=O)O)nc(-c2ccc(I)c(F)c2F)c(F)c1N [Compound 28] | 145 to 147 °C | – | – | – | – | – | – | – | pest or weed control at 70 g/ha [1]: 70%; pest or weed control at 70 g/ha [2]: 100%; pest or weed control at 70 g/ha [3]: 40%; pest or weed control at 70 g/ha [4]: 80%; pest or weed control at 70 g/ha [5]: 100%; pest or weed control at 70 g/ha [6]: 5%; pest or weed control at 70 g/ha (ZEAMX: corn (Zea mays)): 70%
7 | COC(=O)c1nc(-c2ccc(Cl)cc2)c(F)c(N)c1OC [Compound 31, methyl 4-amino-6-(4-chlorophenyl)-5-fluoro-3-methoxypicolinate] | 93 to 94 °C | 100% | 100% | 100% | 95% | 100% | 15% | 85% | –
8 | COC(=O)c1nc(-c2ccc(Cl)c(F)c2)c(F)c(N)c1OC [Compound 32] | 109 to 110 °C | 95% | 100% | 100% | 90% | 100% | 0% | 75% | –
9 | COC(=O)c1nc(-c2ccc(C(F)(F)F)cc2)c(F)c(N)c1OC [Compound 35] | 97 to 99 °C | 75% | 100% | 100% | 80% | 100% | 0% | 70% | –
10 | COC(=O)c1nc(-c2ccc(F)cc2)c(F)c(N)c1OC [Compound 36] | 141 to 143 °C | 100% | 100% | 100% | 0% | 100% | 0% | 60% | –
11 | COC(=O)c1nc(-c2ccc3c(c2)OCO3)c(F)c(N)c1OC [Compound 37] | 110 to 112 °C | 55% | 100% | 100% | 100% | 100% | 0% | 75% | –
12 | COC(=O)c1nc(-c2ccc(C(F)(F)F)c(F)c2F)c(F)c(N)c1OC [Compound 38] | 139 to 141 °C | 85% | 90% | 50% | 10% | 100% | 0% | 75% | –
13 | COC(=O)c1nc(-c2cc(F)c(Cl)cc2F)c(F)c(N)c1OC [Compound 39] | 120 to 123 °C | – | – | – | – | – | – | – | pest or weed control at 70 g/ha [1]: 80%; pest or weed control at 70 g/ha [2]: 100%; pest or weed control at 70 g/ha [3]: 100%; pest or weed control at 70 g/ha [4]: 80%; pest or weed control at 70 g/ha [5]: 100%; pest or weed control at 70 g/ha [6]: 0%; pest or weed control at 70 g/ha (ZEAMX: corn (Zea mays)): 75%
14 | COC(=O)c1nc(-c2ccc(C(F)(F)F)nc2)c(F)c(N)c1OC [Compound 40] | 130 to 132 °C | 80% | 100% | 100% | 50% | 100% | 0% | 70% | –
15 | COC(=O)c1nc(-c2ccc(Cl)c(N(C)C)c2F)c(F)c(N)c1OC [Compound 43] | 113 to 115 °C | 90% | 100% | 50% | 80% | 100% | 0% | 70% | –
16 | COC(=O)c1nc(-c2ccc(Cl)cc2)c(Cl)c(N)c1OC [Compound 44, methyl 4-amino-5-chloro-6-(4-chlorophenyl)-3-methoxypicolinate] | 139 to 141 °C | 50% | 100% | 100% | 0% | 0% | 0% | 15% | –
17 | COc1c(C(=O)O)nc(-c2ccc(F)cc2)c(F)c1N [Compound 52] | 149 to 151 °C | – | 100% | 100% | 60% | 100% | 0% | 50% | –
18 | CNc1cc(-c2ccc(Cl)cc2)nc(C(=O)OC)c1N [Compound 86, Methyl 3-amino-6-(4-chlorophenyl)-4-(methylamino)picolinate] | 178 to 200 °C | – | – | – | – | – | – | – | pest or weed control at 280 g/ha [1]: 40%; pest or weed control at 280 g/ha [2]: 95%; pest or weed control at 280 g/ha [3]: 0%; pest or weed control at 280 g/ha [5]: 50%; pest or weed control at 280 g/ha [6]: 0%; pest or weed control at 280 g/ha (ZEAMX: corn (Zea mays)): 0%
